Source: patent US20100204113A1, “USE OF STRESSCOPIN-RELATED PEPTIDE AS A THERAPEUTIC AGENT” (priority 2007, published 2010)
No end group written: not given here.

Experiments:
HIV-1IIIB = test: HIV-1 antiviral assay (CPE reduction, MTS); assay type: cell-based; settings: peptide 10 micrograms per ml, 6 days post-infection
CEM-SS cells = test: Cytotoxicity in the HIV-1 assay (cell viability, MTS); settings: peptide 10 micrograms per ml
HepG2-2.2.15 cells = test: Cytotoxicity in the HBV assay (dye uptake); assay type: cell-based; settings: peptide 10 micrograms per ml
MRC-5 cells = settings: human, 6 days
MRSA = settings: 5 micrograms per ml
[1] = test system: Primary Human endothelial cells (HUVEC); test: Endothelial cell migration assay; assay type: cell-based; settings: peptide 10 micrograms per ml, 22 hours
[2] = test system: Human Peripheral Blood Mononuclear Cells (PBMC); test: T cell proliferation assay (PHA, 3H-thymidine); settings: peptide 10 micrograms per ml, 3H-thymidine incorporation
[3] = test system: hepatitis B virus (HBV) ayw strain; test: HBV assay (secreted HBV DNA, TaqMan PCR); assay type: cell-based; settings: HepG2-2.2.15; peptide 10 micrograms per ml; six days; HBV DNA in supernatant
A549 cells [4] = test: Apoptosis induction assay (Annexin-5); assay type: cell-based, human; settings: peptide 10 micrograms per ml, 24 hours
Excerpt: Human A549 cells (carcinomic human alveolar basal epithelial cells) were utilized in the experiments employing the Annexin-5 apoptosis assay.

in vitro [5] = settings: human, CEM-SS cells
spleen cells = test: Th1/Th2 cytokine profiling assay (Ovalbumin restimulation, CBA kit); assay type: cell-based, Balb/c mice; settings: peptide 10 micrograms per ml, 72 hours
[6] = Cytotoxicity in the HBV assay (dye uptake); assay type: cell-based; settings: human, HepG2-2.2.15 cells, peptide 10 micrograms per ml, read-out: % Cell Viability
HCMV strain AD169 = test: HCMV plaque reduction assay; settings: MRC-5 cells; peptide 10 micrograms per ml; 7-10 days
[7] = test system: Human Peripheral Blood Mononuclear Cells (PBMC); test: B cell proliferation assay (SAC plus Interleukin-2, 3H-thymidine); assay type: cell-based; settings: peptide 10 micrograms per ml, 3H-thymidine incorporation
HUVEC = test: Endothelial tube formation assay; assay type: cell-based, human; settings: peptide 10 micrograms per ml, 20 hours
Excerpt: Positive control was vehicle only.

A549 cells [8] = test: Cell cycle assay (propidium iodide, FACS); assay type: cell-based, human; settings: peptide 10 micrograms per ml, 24 hours
Excerpt: The cell cycle consists of four distinct phases: […]

[9] = test system: macrophages prepared from human PBMC; test: TNF alpha production assay (LPS-stimulated macrophages, ELISA); assay type: cell-based; settings: peptide 10 micrograms per ml, 30 min preincubation, lipopolysaccharide 200 ng/ml overnight
Excerpt: Not stimulated macrophages served as negative background control.

Streptococcus pneumoniae = assay type: cell-based; settings: 5 micrograms per ml
Pseudomonas aeruginosa = assay type: cell-based; settings: 5 micrograms per ml
in vitro [10] = settings: human, MRC-5 cells
RAW 264.7 cells = test: Phagocytosis assay (Fluorescein-labeled Escherichia coli, flow cytometry); assay type: cell-based, mouse; settings: peptide 10 micrograms per ml, 30 min preincubation, 60 min ingestion
A549 cells [11] = test: Apoptosis prevention assay (C2 ceramide, Annexin-5); assay type: cell-based, human; settings: 30 min pretreatment with peptide 10 micrograms per ml, then C2 ceramide

With `Cc1cn([C@H]2C[C@H](N=[N+]=[N-])[C@@H](CO)O2)c(=O)[nH]c1=O` [AZT, reference compound] the “% CPE reduction in HIV-1 infected CEM-SS cells” value (HIV-1IIIB) was 99% and the “% Cell viability” value (CEM-SS cells) was 97%.

For `Nc1ccn([C@@H]2CS[C@H](CO)O2)c(=O)n1` [3TC, Lamivudine, reference compound], the “% Cell viability” value (HepG2-2.2.15 cells) was 95.8%.

With `Nc1nc(O)c2ncn(COC(CO)CO)c2n1` [Ganciclovir] the “% Cell viability” value (MRC-5 cells) was 100%.

In the case of “HPGSRIVLSLDVPIGLLQILLEQARARAAREQATTNARILARV-NH2 [Stresscopin-related peptide]”, the “% inhibition” value (MRSA) is reported as 0.0%, the “% inhibition of migration” value [1] is reported as 15% and the “% of PHA induced control” value [2] is reported as 92.6%. The “% inhibition of HBV replication in HEP G2 cells” value [3] was 0.0%, the “% CPE reduction in HIV-1 infected CEM-SS cells” value (HIV-1IIIB) was 0.0% and the “% of induction” value (A549 cells [4]) was 1.2%. For the same compound, the viability at 10 micrograms per ml (in vitro [5]) was 100%, the “IFNγ spleen cells; TH1 response (% of control)” value (spleen cells) was 105.6 % of control and the “IL-2 spleen cells (% of control)” value (spleen cells) was 66.8 % of control. For the same compound, the “IL-4 spleen cells; TH2 response (% of control)” value (spleen cells) was 68.9 % of control, the “IL-5 spleen cells; TH2 response (% of control)” value (spleen cells) was 67.0 % of control and the “TNF-a spleen cells; TH1 response (% of control)” value (spleen cells) was 125.6 % of control. The viability at 144 h, 10 micrograms per ml [6] was 100%, the “% plaque reduction” value (HCMV strain AD169) was 0.0% and the “% of SAC/IL2 induced control” value [7] was 91.4%. The “% inhibition of tube formation” value (HUVEC) was 35%, the “Cell cycle analysis G0/G1” value (A549 cells [8]) was 56.9 and the “Cell cycle analysis G2/M” value (A549 cells [8]) was 9.7. For the same compound, the “Cell cycle analysis S” value (A549 cells [8]) was 33.4, the “% of LPS induction” value [9] was 117.0% and the “% inhibition” value (Streptococcus pneumoniae) was 0.0%. The “% inhibition” value (Pseudomonas aeruginosa) was 0.0%, the viability at 144 h, 10 micrograms per ml (in vitro [10]) was 100% and the “% of control phagocytosis” value (RAW 264.7 cells) was 131.4%. For the same compound, the “% prevention of ceramide induced apoptosis” value (A549 cells [11]) was 0.0%.
